Read-outs that look alike come from different tables or passages of the source.
Legend:
THP-1 = assay type: cell-based; conditions: Homo sapiens, 72 h, Cell Titer Glo
M07e = experiment: Secondary dose-response HTS, Cell Titer Glo; assay type: cell-based, human; conditions: Homo sapiens, M-07e
MOLM-13 [1] = experiment: Secondary dose-response HTS, Cell Titer Glo; assay type: cell-based, human; conditions: Homo sapiens, MOLM-13
ML2 = experiment: Secondary dose-response HTS, Cell Titer Glo; assay type: cell-based, human; conditions: Homo sapiens, ML-2
[2] = system: ML-2-luciferase/YFP+ xenograft; experiment: In vivo efficacy, survival; set-up: species or system NSG mice; conditions: ML-2 xenograft, 50 mg kg−1 q4d, i.p.
AML cell lines [3] = conditions: human, 5 min, 1 µM
CMK = experiment: cells; set-up: species or system AML cell lines (8); Secondary HTS, 10-point dose-response in triplicate, Cell Titer Glo viability, four-parameter fit EC50; conditions: Homo sapiens, CMK, 72 h, read-out: CMK
U937 [4] = experiment: Secondary dose-response HTS, Cell Titer Glo; assay type: cell-based, human; conditions: Homo sapiens, U-937; secondary HTS, 72 h, average of triplicate; read-out: EC50 U937
MV4-11 [5] = experiment: cells; set-up: species or system AML cell lines (8); Secondary HTS, 10-point dose-response in triplicate, Cell Titer Glo viability, four-parameter fit EC50; conditions: Homo sapiens, MV4-11, 72 h, read-out: MV4-11
[6] = In vivo tolerability / maximum tolerated dose; set-up: species or system mice
Description: Next, we sought to compare the in vivo efficacy of gemcitabine and cabazitaxel to the standard of care, cytarabine. Due to limitations with tolerability, we have previously treated our AML xenograft models with low-dose cytarabine[13],[31]. […] Tolerability studies of gemcitabine at the same dose and schedule was not tolerated. […] Similarly, we performed tolerability of cabazitaxel using multiple doses on an intermittent every 3 or 4-day schedule; the only tolerable dose was 5 mg/kg.
All animal studies were performed in accordance with Animal Care and Use Programs under protocols approved by the Institutional Animal Care and Use Committee at OSU. We have complied with the relevant ethical considerations for animal research overseen by this committee. Mice were housed in a barrier facility. Non-tumor bearing Ly5.2 C57Bl/6 (BoyJ) mice were treated with 100, 120, or 140 mg kg^−1 gemcitabine on an intermittent schedule every 3 days for 3 weeks; 3 or 6 mg kg^−1 doses were used to evaluate daily for 5 days schedule. All doses were administered by intraperitoneal injection; tolerability was assessed by daily weights and observation of changes in body condition.
Supplementary Figure 12. Establish maximum tolerated dose of gemcitabine. Non-tumor bearing female BoyJ mice were treated on an intermittent schedule every 3 days for 3 weeks with 100, 120, or 140 m gkg-1 gemcitabine (Gem ) or treated on a daily schedule once a day for 5 days with 3 or 6 m gkg-1 Gem. Daily weight of treated mice; data reported as a percent weight loss from day 0. Arrow indicate treatment days.

MV4-11 [7] = assay type: cell-based; conditions: Homo sapiens, 72 h, Cell Titer Glo
AML cell lines [8] = experiment: Nuclear accumulation of [3H]-labelled drug; assay type: cell-based, human; conditions: 2 h, 1 µM
ML-2 = assay type: cell-based; conditions: Homo sapiens, 72 h, Cell Titer Glo
[9] = system: CBFA2T3-GLIS2/JAK2V617F-induced AMKL model; experiment: In vivo efficacy, survival; set-up: species or system mice; conditions: CBFA2T3-GLIS2/JAK2V617F-Luc+ quaternary transplants, i.p.
[10] = system: CHRF288-11-luciferase/YFP+ xenograft; experiment: In vivo efficacy, survival; set-up: species or system NSG mice; conditions: CHRF288-11 xenograft, 50 mg kg−1 q4d, i.p.
[11] = system: Mll-PTD/wt:Flt3ITD/ITD primary transplants; experiment: In vivo efficacy, survival; set-up: species or system mice; conditions: Mll-PTD/wt:Flt3ITD/ITD primary transplants, 50 mg kg−1 q4d, i.p.
MOLM-13 [12] = assay type: cell-based; conditions: Homo sapiens, 72 h, Cell Titer Glo
[13] = system: Mll-PTD/wt:Flt3ITD/ITD secondary transplants; experiment: In vivo efficacy, survival; set-up: species or system mice; conditions: for Median survival: i.p.
U937 [14] = experiment: cells; set-up: species or system AML cell lines (8); Secondary HTS, 10-point dose-response in triplicate, Cell Titer Glo viability, four-parameter fit EC50; conditions: Homo sapiens, U-937, 72 h, read-out: U937
CHRF288-11 [15] = assay type: cell-based; conditions: Homo sapiens; 72 h, Cell Titer Glo; read-out: IC50 CHRF288-11
[16] = system: MLLr primary AML blast samples; experiment: Ex vivo drug treatment of primary AML blasts on mesenchymal stromal cells; assay type: cell-based; conditions: Homo sapiens; primary blasts on MSC, 96 h, range over patient samples
[17] = system: AMKL primary AML blast samples; experiment: as above; assay type: cell-based; conditions: Homo sapiens; primary blasts on MSC, 96 h
CHRF288-11 [18] = experiment: Secondary dose-response HTS, Cell Titer Glo; assay type: cell-based, human; conditions: Homo sapiens; secondary HTS, 72 h, average of triplicate; read-out: EC50 CHRF288-11
CMS = assay type: cell-based; conditions: Homo sapiens; 72 h, Cell Titer Glo; read-out: IC50 CMS

`Nc1ccn([C@@H]2O[C@H](CO)[C@@H](O)C2(F)F)c(=O)n1` [Gemcitabine, gemcitabine] showed an IC50 (THP-1) of 3.5 nM, an EC50 (M07e; secondary HTS, 72 h, average of triplicate, read-out: EC50 M07e) of 60 nM and an EC50 (M07e; secondary high-throughput screen, M07e, read-out: average effective concentration, M07e) of 62 nM. The EC50 (MOLM-13 [1]; secondary HTS, 72 h, average of triplicate, read-out: EC50 MOLM-13) was 3 nM, the EC50 (MOLM-13 [1]; secondary high-throughput screen, read-out: average effective concentration, MOLM-13) was 2.73 nM and the EC50 (ML2; secondary HTS, 72 h, average of triplicate, read-out: EC50 ML2) was 2 nM. The EC50 (ML2; secondary high-throughput screen, read-out: average effective concentration, ML-2) was 1.7 nM, the Median survival [2] was 45 days and the “intracellular uptake, gemcitabine relative to cytarabine” value (AML cell lines [3]) was 1.2–3.6 fold. The EC50 (CMK) was 8.4 nM, the EC50 (U937 [4]) was 10 nM and the EC50 (MV4-11 [5]) was 2.1 nM. For the same compound, the MTD at 5 days ([6]; female, Ly5.2 C57Bl/6 (BoyJ), mouse, in vivo, ip, immunocompetent (BoyJ) mice, daily for 5 days, i.p., read-out: MTD, daily administration) was 3 mg/kg, the “MTD, intermittent administration” value ([6]; immunocompetent (BoyJ) mice, q3d for 3 weeks, i.p.) was 120 mg/kg and the tolerability ([6]; mouse, in vivo) was “not tolerated”. For the same compound, the IC50 (MV4-11 [7]) was 3.2 nM, the “nuclear accumulation, gemcitabine compared to cytarabine” value (AML cell lines [8]) was 5–19.8 fold and the IC50 (ML-2) was 0.6 nM. For the same compound, the Median survival ([9]; 3 mg kg−1 daily x 5 days) was 91 days, the Median survival ([9]; 120 mg kg−1 q3d) was > 125 days and the Median survival [10] was 48 days. For the same compound, the Median survival ([10]; x 2 cycles) was 66 days, the Median survival [11] was 69 days and the IC50 (MOLM-13 [12]) was 0.7 nM. The Median survival ([13]; 3 mg kg−1 daily x 5 days) was 49 days, the “tolerability of the intermittent MTD” value ([13]; 120 mg kg−1 q3d) was “not well tolerated” and the Median survival ([13]; 120 mg kg−1 q3d (only 4 doses received)) was 52 days. The EC50 (U937 [14]) was 7.73 nM, the IC50 (CHRF288-11 [15]) was 0.4 nM and the IC50 [16] was 267 to 4230 nM. For the same compound, the IC50 [17] was 108 nM, the EC50 (CHRF288-11 [18]) was 3 nM and the IC50 (CMS) was 1 nM.

— paper PMC6522510 (Nature Communications, 2019)
